Results on ten compounds are retold here after patent US7119206B2, “Derivative of dihydro-dibenzo (a) anthracenes and their use as selective estrogen receptor modulators” (Eli Lilly and Company, priority 2002, dated 2006).

For test [1], the system named is Ishikawa human endometrial tumor cells. The test can be described thus: Ishikawa cell assay (PNPP readout), antagonist mode. The conditions noted are these: with 1 nM E2. Format: cell-based. From the text: (§1) Ishikawa human endometrial tumor cells are maintained in MEM (minimum essential medium, with Earle's salts and L-Glutamine, Gibco BRL, Gaithersburg, Md.), supplemented with 10% fetal bovine serum (FBS) (V/V), (Gibco BRL). One day prior to assay, growth media is changed to assay medium, DMEM/F-12 (3:1) (Dulbecco's Modified Eagle Medium: Nutrient Mixture F-12, 3:1 Mixture, phenol red-free, Gibco BRL) supplemented with 5% dextran coated charcoal stripped fetal bovine serum (DCC-FBS) (Hyclone, Logen, Utah), L-Glutamine (2 mM), MEM sodium pyruvate (1 mM), HEPES (N-[2-hydroxyethyl]piperazine-N′-[2-ethanesulfonic acid] 2 mM) all from Gibco BRL). After an overnight incubation, ishikawa cells are rinsed with Dulbecco's Phosphate Buffered Saline (1×) (D-PBS) without Ca^+2 and Mg^+2 (Gibco BRL), and trypsinized by a 3 minute incubation with 0.25% Trypsin/EDTA, phenol red-free (Gibco BRL). Cells are resuspended in assay medium and adjusted to 250,000 cells/ml. Approximately 25,000 cells in a 100 ul media are added to flat-bottom 96 wells microculture plates (Costar 3596) and incubated at 37° C. in a 5% CO2 humidified incubator for 24 hours. The next day, serial dilutions of compounds are prepared in assay medium (at 6 times the final concentration in the assay). The assay is run in dual mode, agonist and antagonist modes. For the agonist mode, plates receive 25 μl/well of assay medium followed by 25 μl/well of diluted compounds (at 6× the final concentrations). For the antagonist mode, plates receive 25 μl/well of 6 nM E2 (β-Estradiol, Sigma, St. Louis, Mo.) followed by 25 μl/well of diluted compounds (at 6× the final concentrations). After an additional 48-hour incubation at 37° C. in a 5% CO2 humidified incubator, media is aspirated from wells and 100 μl fresh assay medium is added to each microculture. Serial dilutions of compounds are prepared and added to the cells as described above. After an additional 72 hour incubation at 37° C. in a 5% CO2 humidified incubator, the assay is quenched by removing media and rinsing plates twice in Dulbecco's Phosphate Buffered Saline (1×) (D-PBS) (Gibco BRL). The plates are dried for 5 min and frozen at −70° C. for at least 1 hour. The plates are then removed from the freezer and allowed to thaw at room temperature. To each well, 100 μl of 1-Step™ PNPP (Pierce Chemical Company, Rockford, Ill.) is added. After a 20-minute incubation, plates are read on a spectophotometer at 405 nm. The data is fitted to a linear interpolation to derive EC50 (for agonist mode) or IC50 (for antagonist mode) values. For the agonist mode, a % efficacy for each compound is calculated versus the response to Tamoxifen. For the antagonist mode, a % efficacy for each compound is calculated versus E2 (1 nM) alone.

Test [2] has the same test system. As to the kind of experiment: Ishikawa cell assay (PNPP readout), agonist mode. Format: cell-based. Particulars: for Emax / Ishikawa Agonist % Eff: % efficacy versus the response to Tamoxifen; for Emax: read-out: Ishikawa Agonist % Eff.
Text: as §1

For another test, the target named is T1, ERAlpha receptor (Homo sapiens, UniProt P03372).
T1 construct: purchased PanVera
T1 sequence (P03372 1-595): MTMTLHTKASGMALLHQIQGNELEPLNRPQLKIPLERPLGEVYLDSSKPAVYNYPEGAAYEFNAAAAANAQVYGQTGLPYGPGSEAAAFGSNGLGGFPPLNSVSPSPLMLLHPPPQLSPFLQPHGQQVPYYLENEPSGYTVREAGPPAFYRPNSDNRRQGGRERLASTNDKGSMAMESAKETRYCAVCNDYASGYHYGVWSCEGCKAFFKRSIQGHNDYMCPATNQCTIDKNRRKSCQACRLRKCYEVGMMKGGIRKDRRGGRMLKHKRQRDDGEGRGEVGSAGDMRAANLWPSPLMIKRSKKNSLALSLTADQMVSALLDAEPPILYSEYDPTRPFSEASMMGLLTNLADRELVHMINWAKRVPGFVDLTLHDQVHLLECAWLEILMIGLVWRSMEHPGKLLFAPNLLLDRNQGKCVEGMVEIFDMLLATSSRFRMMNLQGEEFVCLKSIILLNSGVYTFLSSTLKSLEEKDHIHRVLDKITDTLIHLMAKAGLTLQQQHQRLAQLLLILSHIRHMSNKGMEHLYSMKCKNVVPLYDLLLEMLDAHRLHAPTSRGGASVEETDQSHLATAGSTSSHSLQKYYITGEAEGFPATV
The test can be described thus: ER alpha competition binding assay (3H-Estradiol). The conditions noted are these: 3H-Estradiol competition; IC50 converted to Ki using Cheng-Prusoff; read-out: ER binding Ki (ERα). The protocol: (§2) Competition binding assay is run in a buffer containing 50 mM Hepes, pH 7.5, 1.5 mM EDTA, 150 mM NaCl, 10% glycerol, 1 mg/ml ovalbumin and 5 mM DTT, using 0.025 μCi per well ^3H-Estradiol(NEN #NET517 at 118 Ci/mmol, 1 mCi/ml), 10 ng/well ERAlpha or ERbeta receptor (PanVera). Competing compounds are added at 10 different concentrations. Non-specific binding is determined in the presence of 1 μM of 17-B Estradiol. The binding reaction (140 μl) is incubated for 4 hours at room temperature, then 70 μl of cold DCC buffer is added to each reaction (DCC buffer contains per 50 ml of assay buffer, 0.75 g of charcoal (Sigma) and 0.25 g of dextran (Pharmacia)). Plates are mixed 8 minutes on an orbital shaker at 4° C. Plates are then centrifuged at 3,000 rpm at 4° C. for 10 minutes. An aliquot of 120 μl of the mix is transferred to another 96-well, white flat bottom plate (Costar) and 175 μl of Wallac Optiphase “Hisafe 3” scintillation fluid is added to each well. Plates are sealed and shaken vigorously on an orbital shaker. After an incubation of 2.5 hrs, read plates in a Wallac Microbeta counter. […] The Kd for ^3H-Estradiol is determined by saturation binding to ER alpha and ER beta receptors. The IC50 values for compounds are converted to Ki using Cheng-Prusoff equation and the Kd determined by saturation binding assay.

The next test concerns the target T2, ERbeta receptor (Homo sapiens, UniProt Q92731).
T2 construct: purchased PanVera
As to the kind of experiment: ER beta competition binding assay (3H-Estradiol). Particulars: 3H-Estradiol competition; IC50 converted to Ki using Cheng-Prusoff; read-out: ER binding Ki (ERβ). The procedure:
as §2

The subject of test [3] is MCF-7 breast adenocarcinoma cells. The test can be described thus: MCF-7 proliferation assay (14C-thymidine), antagonist mode. It is filed as cell-based. Particulars: with 10 pM E2. The protocol:
MCF-7 breast adenocarcinoma cells (ATCC HTB 22) are maintained in MEM (minimal essential medium, phenol red-free, Gibco BRL) supplemented with 10% fetal bovine serum (FBS) (V/V), L-glutamine (2 mM), sodium pyruvate (1 mM), HEPES ((N-[2-hydroxyethyl]piperazine-N′-[2-ethanesulfonic acid]10 mM}, non-essential amino acids(0.1 mM)and Penicillin Streptomycin(1×). Seven days prior to assay, MCF-7 cells are switched to assay media which is the same as maintenance medium except supplemented with 10% dextran-coated charcoal-stripped fetal bovine serum (DCC-FBS) assay medium in place of 10% FBS. MCF-7 cells are removed from flasks using 10× Trypsin EDTA (phenol red free, Gibco BRL) and diluted to 1× in (Ca++/Mg++ free HBSS (phenol red-free). Cells are adjusted to 80,000 cells/ml in assay medium. Approximately 8,000 cells (100 μl) are added to each well in 96 well Cytostar T scintillation plates (Amersham) and incubated at 37° C. in a 5% CO2 humidified incubator for 24 hours to allow cell adherence and equilibration after transfer. Serial dilutions of drugs are prepared in assay medium at 4× the final desired concentration). A 50 μl aliquot of drug dilutions (at 4× the final assay concentration) is transferred to duplicate wells followed by 50 μl assay medium for the agonist mode or 50 μl of 40 pM of E2 for the antagonist mode to a final volume of 200 μl. For each of the agonist plates, a basal level (media) and a maximum stimulated level (with 1 μM E2) is determined. For each of the antagonist plates, a basal level (media) and a E2 (10 pM) alone control is determined. After an additional 48 hours at 37° C. in a 5% CO2 humidified incubator, 20 μl of assay medium containing 0.01 μCi of ^14C-thymidine (52 mCi/mmol, […], Amersham) is added to each well. The plates are incubated overnight in the same incubator and then counted on the Wallac Microbeta counter. […] For the agonist mode, an EC50 and percent of maximum E2 stimulation and concentration of maximum stimulation is calculated.

The mark [4] stands for this setting: Homo sapiens, MCF7, antagonist mode.

Molecules are shown by their SMILES. Counter-ions that a name gives are not always drawn. Like-named read-outs stand apart in the source and are kept apart here.

T2 sequence (Q92731 whole entry): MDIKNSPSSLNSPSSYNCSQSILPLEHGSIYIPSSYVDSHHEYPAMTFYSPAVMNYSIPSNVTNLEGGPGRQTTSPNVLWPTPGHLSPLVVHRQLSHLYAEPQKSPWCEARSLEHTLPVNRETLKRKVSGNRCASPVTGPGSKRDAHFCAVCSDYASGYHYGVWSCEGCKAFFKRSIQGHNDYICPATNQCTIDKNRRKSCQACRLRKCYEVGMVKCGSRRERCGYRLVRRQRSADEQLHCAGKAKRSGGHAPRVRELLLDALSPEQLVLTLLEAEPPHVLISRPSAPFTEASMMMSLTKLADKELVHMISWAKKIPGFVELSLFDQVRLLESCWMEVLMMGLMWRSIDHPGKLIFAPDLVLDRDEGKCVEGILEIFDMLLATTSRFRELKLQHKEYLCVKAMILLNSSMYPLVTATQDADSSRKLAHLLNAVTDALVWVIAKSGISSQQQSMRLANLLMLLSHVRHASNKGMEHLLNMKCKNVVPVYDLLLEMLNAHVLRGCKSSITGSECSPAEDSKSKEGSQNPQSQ

A word on the IC50: it is the concentration that inhibits the measured activity by half. A high value points to weaker potency. One may read the EC50 as the concentration giving half of the maximal effect. The Ki is the equilibrium dissociation constant of an inhibitor or competing ligand from its target. As for `Oc1ccc2c3c(ccc2c1)Cc1ccc(F)cc1C3c1ccc(OCCN2CCCCC2)cc1` (racemic) [Example 5, 10-Fluoro-12-[4-(2-piperidin-1-yl-ethoxy)-phenyl]-7,12-dihydro-benzo[a]anthracen-3-ol], the IC50 in test [1] was 610 nM; in test [3] (setting [4]), 91 nM. The EC50 in test [2] (Homo sapiens, Ishikawa) turned out to be 11 nM. Also, in test [2] (Homo sapiens, Ishikawa), the Emax came to 79%. Moreover, the Ki was 3 nM on ERAlpha receptor and 31 nM at ERbeta receptor.
`Oc1ccc2c3c(ccc2c1)Cc1ccc(F)cc1C3c1ccc(OCCN2CCCCC2)cc1` (racemic) [Example 6, 10-fluoro-12-[4-(2-piperidin-1-yl-ethoxy)-phenyl]-7,12-dihydro-benzo[a]anthracen-3-ol]: the EC50 in test [2] was found to be 116 nM. The IC50 in test [3] (antagonist mode) came out at 740 nM.
Regarding `Oc1ccc2c3c(ccc2c1)Cc1ccc(F)cc1C3c1ccc(OCCN2CCCCC2)cc1` (racemic) [Example 7, 10-fluoro-12-[4-(2-piperidin-1-yl-ethoxy)-phenyl]-7,12-dihydro-benzo[a]anthracen-3-ol], in test [2], the EC50 came to 3 nM and the “Ishikawa Agonist % Eff” value is 72%. The Ki at ERAlpha receptor was 1 nM. In test [3] (antagonist mode), this compound had an IC50 of 9 nM.
As to `Oc1ccc2c(c1)Cc1ccc3cc(O)ccc3c1C2c1ccc(OCCN2CCCCC2)cc1` (racemic) [Example 9, 12-[4-(2-Piperidin-1-yl-ethoxy)-phenyl]-7,12-dihydro-benzo[a]anthracene-3,9-diol], in test [2], the EC50 was 1 nM and the “Ishikawa Agonist % Eff” value came to 27%. The Ki at ERbeta receptor worked out at 4 nM. The compound also gave an IC50 in test [3] (antagonist mode) of 2 nM.
Consider `Oc1ccc2c(c1)Cc1ccc3cc(O)ccc3c1C2c1ccc(OCCN2CCCCC2)cc1` (racemic) [Example 10, 12-[4-(2-piperidin-1-yl-ethoxy)-phenyl]-7,12-dihydro-benzo[a]anthracene-3,9-diol], for which, in test [2], the EC50 was 3 nM and the “Ishikawa Agonist % Eff” value was found to be 56%. Moreover, at ERbeta receptor, the Ki was 5 nM.
Turning to `Oc1ccc2c(c1)Cc1ccc3cc(O)ccc3c1C2c1ccc(OCCN2CCCCC2)cc1` (racemic) [Example 11, 12-[4-(2-piperidin-1-yl-ethoxy)-phenyl]-7,12-dihydro-benzo[a]anthracene-3,9-diol], in test [2], the EC50 came out at 1 nM and the “Ishikawa Agonist % Eff” value worked out at 19%. Also, the Ki on ERbeta receptor amounted to 4 nM. This compound also yielded an IC50 in test [3] (antagonist mode) of 2 nM.
In the case of `Oc1ccc2c3c(ccc2c1)Cc1ccc(F)cc1C3c1ccc(OCCN2CCCCC2)cc1` (single isomer, unassigned) [Example 6, 10-fluoro-12-[4-(2-piperidin-1-yl-ethoxy)-phenyl]-7,12-dihydro-benzo[a]anthracen-3-ol], the Emax in test [2] (Homo sapiens, Ishikawa) was 69%. The results for the Ki at ERAlpha receptor and on ERbeta receptor were 70 nM and 149 nM, respectively.
In turn, `Oc1ccc2c3c(ccc2c1)Cc1ccc(F)cc1C3c1ccc(OCCN2CCCCC2)cc1` (single isomer, unassigned) [Example 7, 10-fluoro-12-[4-(2-piperidin-1-yl-ethoxy)-phenyl]-7,12-dihydro-benzo[a]anthracen-3-ol] registered an IC50 in test [1] of 440 nM. Further, the Ki on ERbeta receptor was 9 nM.
Regarding `Oc1ccc2c3c(sc2c1)Cc1ccccc1C3c1ccc(OCCN2CCCCC2)cc1` (stereo not shown) [Example 1, 11-[4-(2-Piperidin-1-yl-ethoxy)-phenyl]-6,11-dihydro-benzo[b]naphtho[2,3-d]thiophen-3-ol trifluoroacetate], the IC50 turned out to be 712 nM in test [1] and 17 nM in test [3] (setting [4]). The compound further showed an EC50 in test [2] (Homo sapiens, Ishikawa) of 3 nM. For the same compound, in test [2] (Homo sapiens, Ishikawa), the Emax worked out at 77%. Besides, the results for the Ki on ERAlpha receptor and at ERbeta receptor were 2 nM and 5 nM, respectively.
Take `Oc1ccc2c(c1)Cc1sc3cc(O)ccc3c1C2c1ccc(OCCN2CCCCC2)cc1` (stereo not shown) [Example 2, 11-[4-(2-Piperidin-1-yl-ethoxy)-phenyl]-6,11-dihydro-benzo[b]naphtho[2,3-d]thiophene-3,8-diol trifluoroacetate]: the half-maximal inhibitory concentration (IC50) came out at 45 nM in test [1] and 1 nM in test [3] (setting [4]). In test [2] (Homo sapiens, Ishikawa), this compound yielded an EC50 of 0.5 nM. In addition, in test [2] (Homo sapiens, Ishikawa), the Emax was 103%. The Ki at ERAlpha receptor and at ERbeta receptor was 1 nM each time.
